Laboratory results: patent publication US9714247B2, “Multiple kinase pathway inhibitors” (Mannkind Corporation, priority 2012, dated 2017)
Read-outs that look alike come from different tables or passages of the source.

Tests used:
[1] = target: Hck(h) activated (Homo sapiens (Human), UniProt P08631); assay: IC50 profiler radiometric kinase assay (Millipore); assay type: biochemical; conditions: TK; activated = phosphorylated
Protocol: (§1) In order to determine the relative enzyme selectivity of these amino naphthyridinones, representative amino naphthyridinones were evaluated for their ability to inhibit various kinases. Kinases were selected for a broad representation of the kinome (see FIG. 2: Kinases Evaluated). Compounds were evaluated using the IC50 profiler assay (Millipore), which measures substrate phosphorylation via γ-^33P-ATP transfer by the kinase of interest.
(§2) The assay directly measures the catalytic incorporation of phosphate onto kinase substrates. The kinase protein is incubated in buffer with substrate and γ-^33P-ATP. The reaction is initiated by the addition of the Mg-ATP mix. At the end of the reaction incubation time, the reaction is stopped by the addition of phosphoric acid solution and 10 μL of the reaction is spotted onto a filtermat, washed, dried and counted in scintillation fluid. […] In particular the amino naphthyridinones inhibited Abl and some but not all tested members of the Tec and Src families of tyrosine kinases, but not tyrosine-like kinases or the non-tyrosine kinases tested (See FIG. 2: Compound 1). […] Other known drugs with activity against BTK and SFKs, such as dasatinib and bosutinib, have activity against a broader array of tyrosine kinases as well as inhibiting non-tyrosine kinases (See FIG. 2: Dasatinib).

[2] = target: FGFR1(h) (Homo sapiens (Human), UniProt P11362); assay: IC50 profiler radiometric kinase assay (Millipore); assay type: biochemical; conditions: TK
Protocol: as §1, §2

[3] = target: Flt3(h) (Homo sapiens (Human), UniProt P36888); assay: IC50 profiler radiometric kinase assay (Millipore); assay type: biochemical; conditions: TK
Protocol: as §1, §2

[4] = target: Pim-1(h) (Homo sapiens (Human), UniProt P11309); assay: IC50 profiler radiometric kinase assay (Millipore); assay type: biochemical; conditions: CAMK
Protocol: as §1, §2

[5] = target: ASK1(h) (Homo sapiens (Human), UniProt Q99683); assay: IC50 profiler radiometric kinase assay (Millipore); assay type: biochemical; conditions: STE
Protocol: as §1, §2

[6] = target: IKKα(h) (Homo sapiens (Human), UniProt O15111); assay: IC50 profiler radiometric kinase assay (Millipore); assay type: biochemical; conditions: MISC
Protocol: as §1, §2

[7] = target: Syk(h) (Homo sapiens (Human), UniProt P43405); assay: IC50 profiler radiometric kinase assay (Millipore); assay type: biochemical; conditions: TK
Protocol: as §1, §2

[8] = target: Lck(h) (Homo sapiens (Human), UniProt P06239); assay: IC50 profiler radiometric kinase assay (Millipore); assay type: biochemical; conditions: TK
Protocol: as §1, §2

[9] = target: GSK3β(h) (Homo sapiens (Human), UniProt P49841); assay: IC50 profiler radiometric kinase assay (Millipore); assay type: biochemical; conditions: CMGC
Protocol: as §1, §2

[10] = target: Aurora-A(h) (Homo sapiens (Human), UniProt O14965); assay: IC50 profiler radiometric kinase assay (Millipore); assay type: biochemical; conditions: MISC
Protocol: as §1, §2

[11] = target: c-Kit(h) (Homo sapiens (Human), UniProt P10721); assay: IC50 profiler radiometric kinase assay (Millipore); assay type: biochemical; conditions: TK
Protocol: as §1, §2

[12] = target: MEK1(h) (Homo sapiens (Human), UniProt Q02750); assay: IC50 profiler radiometric kinase assay (Millipore); assay type: biochemical; conditions: STE
Protocol: as §1, §2

[13] = target: Plk1(h) (Homo sapiens (Human), UniProt P53350); assay: IC50 profiler radiometric kinase assay (Millipore); assay type: biochemical; conditions: MISC
Protocol: as §1, §2

[14] = target: CDK7/cyclinH/MAT1(h) (Homo sapiens (Human), UniProt P50613); assay: IC50 profiler radiometric kinase assay (Millipore); assay type: biochemical; conditions: CMGC
Protocol: as §1, §2

[15] = target: Bmx(h) (Homo sapiens (Human), UniProt P51813); assay: IC50 profiler radiometric kinase assay (Millipore); assay type: biochemical; conditions: TK
Protocol: as §1, §2

[16] = target: Abl(T315I)(h) (Homo sapiens (Human), UniProt P00519, T315I); assay: IC50 profiler radiometric kinase assay (Millipore); assay type: biochemical; conditions: TK
Protocol: as §1, §2

[17] = target: JAK2(h) (Homo sapiens (Human), UniProt O60674); assay: IC50 profiler radiometric kinase assay (Millipore); assay type: biochemical; conditions: TK
Protocol: as §1, §2

[18] = target: JNK2α2(h) (Homo sapiens (Human), UniProt P45984); assay: IC50 profiler radiometric kinase assay (Millipore); assay type: biochemical; conditions: CMGC
Protocol: as §1, §2

[19] = target: c-Kit(D816V)(h) (Homo sapiens (Human), UniProt P10721, D816V); assay: IC50 profiler radiometric kinase assay (Millipore); assay type: biochemical; conditions: TK
Protocol: as §1, §2

[20] = target: Abl(h) (Homo sapiens (Human), UniProt P00519); assay: IC50 profiler radiometric kinase assay (Millipore); assay type: biochemical; conditions: TK
Protocol: as §1, §2

[21] = target: PDK1(h) (Homo sapiens (Human), UniProt O15530); assay: IC50 profiler radiometric kinase assay (Millipore); assay type: biochemical; conditions: AGC
Protocol: as §1, §2

[22] = target: Tie2(h) (Homo sapiens (Human), UniProt Q02763); assay: IC50 profiler radiometric kinase assay (Millipore); assay type: biochemical; conditions: TK
Protocol: as §1, §2

[23] = target: Src(1-530)(h) (Homo sapiens (Human), UniProt P12931); assay: IC50 profiler radiometric kinase assay (Millipore); assay type: biochemical; conditions: TK
Protocol: as §1, §2

[24] = target: p70S6K(h) (Homo sapiens, UniProt P23443); assay: IC50 profiler radiometric kinase assay (Millipore); assay type: biochemical; conditions: AGC
[25] = target: CDK9/cyclinT1(h) (Homo sapiens (Human), UniProt P50750); assay: IC50 profiler radiometric kinase assay (Millipore); assay type: biochemical; conditions: CMGC
[26] = target: CDK2/cyclinA(h) (Homo sapiens (Human), UniProt P24941); assay: IC50 profiler radiometric kinase assay (Millipore); assay type: biochemical; conditions: CMGC
[27] = target: CaMKI(h) (Homo sapiens (Human), UniProt Q14012); assay: IC50 profiler radiometric kinase assay (Millipore); assay type: biochemical; conditions: CAMK
[28] = test system: DoHH2; assay: CellTiter-Glo proliferation/viability assay; assay type: cell-based, human; conditions: Homo sapiens
[29] = target: PI3 Kinase (p110β/p85α)(h) (Homo sapiens (Human), UniProt P42338); assay: IC50 profiler radiometric kinase assay (Millipore); assay type: biochemical; conditions: Lipid/Atypical
[30] = target: PI3 Kinase (p110α/p85α)(h) (Homo sapiens (Human), UniProt P42336); assay: IC50 profiler radiometric kinase assay (Millipore); assay type: biochemical; conditions: Lipid/Atypical
[31] = target: BTK (Homo sapiens (Human), UniProt Q06187); conditions: read-out: BTK IC50
[32] = test system: Ramos; assay: CellTiter-Glo proliferation/viability assay; assay type: cell-based, human; conditions: Homo sapiens, Ramos, read-out: Ramos EC50
[33] = target: Lyn (Homo sapiens (Human), UniProt P07948); assay: biochemical
[34] = DOHH-2, 48 hrs, read-out: DoHH2 EC50

Aurora-A(h), sequence (O14965 whole entry): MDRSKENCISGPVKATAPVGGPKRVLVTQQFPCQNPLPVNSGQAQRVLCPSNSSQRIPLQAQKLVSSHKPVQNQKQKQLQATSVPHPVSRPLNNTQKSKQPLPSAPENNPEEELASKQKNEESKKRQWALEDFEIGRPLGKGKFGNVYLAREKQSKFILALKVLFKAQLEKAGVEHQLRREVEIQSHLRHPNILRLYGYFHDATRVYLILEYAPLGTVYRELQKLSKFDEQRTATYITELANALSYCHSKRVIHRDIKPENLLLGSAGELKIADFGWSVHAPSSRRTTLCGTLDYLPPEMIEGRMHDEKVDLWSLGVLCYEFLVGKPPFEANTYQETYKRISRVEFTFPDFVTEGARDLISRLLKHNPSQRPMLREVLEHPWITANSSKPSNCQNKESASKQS
PI3 Kinase (p110β/p85α)(h), sequence (P42338 whole entry): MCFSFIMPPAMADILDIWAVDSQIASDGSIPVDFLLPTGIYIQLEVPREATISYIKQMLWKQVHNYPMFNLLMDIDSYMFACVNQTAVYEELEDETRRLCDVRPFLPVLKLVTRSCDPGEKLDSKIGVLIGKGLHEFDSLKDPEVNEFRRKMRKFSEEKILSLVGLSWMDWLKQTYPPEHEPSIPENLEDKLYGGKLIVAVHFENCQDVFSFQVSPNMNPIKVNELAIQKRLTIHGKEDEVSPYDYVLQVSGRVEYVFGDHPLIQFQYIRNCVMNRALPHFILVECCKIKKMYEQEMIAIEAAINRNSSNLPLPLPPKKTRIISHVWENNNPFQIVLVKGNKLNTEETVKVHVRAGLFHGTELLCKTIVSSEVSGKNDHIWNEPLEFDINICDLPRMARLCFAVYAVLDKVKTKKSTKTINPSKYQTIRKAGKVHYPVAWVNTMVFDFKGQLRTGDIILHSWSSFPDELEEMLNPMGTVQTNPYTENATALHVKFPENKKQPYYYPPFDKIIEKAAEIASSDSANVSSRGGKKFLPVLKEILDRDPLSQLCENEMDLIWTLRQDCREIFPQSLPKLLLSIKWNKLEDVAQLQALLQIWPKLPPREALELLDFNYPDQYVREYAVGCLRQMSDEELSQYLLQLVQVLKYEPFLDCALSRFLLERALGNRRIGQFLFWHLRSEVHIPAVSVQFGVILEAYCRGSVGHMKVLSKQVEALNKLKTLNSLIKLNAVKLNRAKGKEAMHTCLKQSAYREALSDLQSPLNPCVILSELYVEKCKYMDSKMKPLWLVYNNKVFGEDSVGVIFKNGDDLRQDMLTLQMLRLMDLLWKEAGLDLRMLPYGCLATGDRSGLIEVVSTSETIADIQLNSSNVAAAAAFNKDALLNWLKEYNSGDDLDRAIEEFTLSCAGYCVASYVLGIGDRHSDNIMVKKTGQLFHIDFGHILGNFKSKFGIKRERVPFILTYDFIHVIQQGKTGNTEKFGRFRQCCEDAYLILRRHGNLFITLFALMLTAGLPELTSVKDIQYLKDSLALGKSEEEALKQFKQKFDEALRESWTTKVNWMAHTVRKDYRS
PI3 Kinase (p110β/p85α)(h), sequence (P27986 whole entry partner): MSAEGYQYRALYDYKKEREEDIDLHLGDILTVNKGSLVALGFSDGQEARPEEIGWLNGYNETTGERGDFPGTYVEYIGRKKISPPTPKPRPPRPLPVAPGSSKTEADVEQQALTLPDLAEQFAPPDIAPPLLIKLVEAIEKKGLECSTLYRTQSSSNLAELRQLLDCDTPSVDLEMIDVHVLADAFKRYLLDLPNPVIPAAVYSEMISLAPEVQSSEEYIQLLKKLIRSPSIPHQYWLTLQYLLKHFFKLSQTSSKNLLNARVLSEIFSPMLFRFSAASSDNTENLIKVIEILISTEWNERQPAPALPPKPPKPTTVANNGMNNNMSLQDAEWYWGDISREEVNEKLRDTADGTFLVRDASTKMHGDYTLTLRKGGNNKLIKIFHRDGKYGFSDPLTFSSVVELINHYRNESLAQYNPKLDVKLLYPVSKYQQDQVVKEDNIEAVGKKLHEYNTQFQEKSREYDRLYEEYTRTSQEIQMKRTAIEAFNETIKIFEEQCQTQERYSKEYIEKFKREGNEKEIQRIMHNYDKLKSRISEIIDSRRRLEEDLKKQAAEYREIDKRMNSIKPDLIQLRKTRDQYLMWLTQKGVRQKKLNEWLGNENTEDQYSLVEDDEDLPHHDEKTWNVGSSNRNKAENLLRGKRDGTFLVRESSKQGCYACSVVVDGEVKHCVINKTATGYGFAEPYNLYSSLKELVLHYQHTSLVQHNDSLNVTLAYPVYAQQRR
IKKα(h), sequence (O15111 whole entry): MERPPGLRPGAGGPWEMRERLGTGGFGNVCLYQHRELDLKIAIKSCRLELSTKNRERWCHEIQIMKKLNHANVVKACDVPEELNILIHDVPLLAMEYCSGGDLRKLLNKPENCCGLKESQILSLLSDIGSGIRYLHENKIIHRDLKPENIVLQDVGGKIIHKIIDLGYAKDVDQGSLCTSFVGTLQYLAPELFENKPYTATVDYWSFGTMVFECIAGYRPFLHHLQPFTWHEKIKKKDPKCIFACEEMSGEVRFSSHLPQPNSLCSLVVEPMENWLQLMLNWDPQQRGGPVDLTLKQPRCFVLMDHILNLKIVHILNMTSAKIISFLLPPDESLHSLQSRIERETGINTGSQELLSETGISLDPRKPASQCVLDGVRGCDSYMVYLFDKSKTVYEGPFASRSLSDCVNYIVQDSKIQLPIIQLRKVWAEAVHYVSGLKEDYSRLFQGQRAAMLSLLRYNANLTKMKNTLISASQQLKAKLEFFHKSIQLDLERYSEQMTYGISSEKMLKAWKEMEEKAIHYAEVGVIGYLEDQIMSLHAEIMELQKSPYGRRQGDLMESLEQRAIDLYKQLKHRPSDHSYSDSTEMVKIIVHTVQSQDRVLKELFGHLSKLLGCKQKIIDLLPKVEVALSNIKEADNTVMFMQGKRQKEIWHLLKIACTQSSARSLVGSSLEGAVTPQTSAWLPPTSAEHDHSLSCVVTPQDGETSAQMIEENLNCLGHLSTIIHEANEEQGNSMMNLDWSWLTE
Bmx(h), sequence (P51813 whole entry): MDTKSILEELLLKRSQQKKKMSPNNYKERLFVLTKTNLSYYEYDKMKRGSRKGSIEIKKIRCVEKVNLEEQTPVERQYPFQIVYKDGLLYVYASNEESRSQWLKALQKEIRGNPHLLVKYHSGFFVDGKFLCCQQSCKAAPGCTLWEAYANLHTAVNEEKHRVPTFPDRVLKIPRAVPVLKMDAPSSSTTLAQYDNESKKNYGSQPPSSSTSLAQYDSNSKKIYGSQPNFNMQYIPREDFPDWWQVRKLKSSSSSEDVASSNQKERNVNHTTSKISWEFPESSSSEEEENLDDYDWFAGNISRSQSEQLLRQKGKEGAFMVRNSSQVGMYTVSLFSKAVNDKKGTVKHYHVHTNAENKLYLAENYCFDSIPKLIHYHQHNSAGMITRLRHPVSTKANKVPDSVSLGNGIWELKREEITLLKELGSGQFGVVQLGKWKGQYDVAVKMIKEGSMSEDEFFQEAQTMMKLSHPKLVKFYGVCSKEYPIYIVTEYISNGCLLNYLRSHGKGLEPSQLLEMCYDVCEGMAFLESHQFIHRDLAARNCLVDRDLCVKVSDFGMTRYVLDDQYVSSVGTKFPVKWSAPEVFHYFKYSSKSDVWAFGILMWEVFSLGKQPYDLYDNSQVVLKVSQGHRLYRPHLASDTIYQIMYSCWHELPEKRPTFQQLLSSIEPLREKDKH
PDK1(h), sequence (O15530 whole entry): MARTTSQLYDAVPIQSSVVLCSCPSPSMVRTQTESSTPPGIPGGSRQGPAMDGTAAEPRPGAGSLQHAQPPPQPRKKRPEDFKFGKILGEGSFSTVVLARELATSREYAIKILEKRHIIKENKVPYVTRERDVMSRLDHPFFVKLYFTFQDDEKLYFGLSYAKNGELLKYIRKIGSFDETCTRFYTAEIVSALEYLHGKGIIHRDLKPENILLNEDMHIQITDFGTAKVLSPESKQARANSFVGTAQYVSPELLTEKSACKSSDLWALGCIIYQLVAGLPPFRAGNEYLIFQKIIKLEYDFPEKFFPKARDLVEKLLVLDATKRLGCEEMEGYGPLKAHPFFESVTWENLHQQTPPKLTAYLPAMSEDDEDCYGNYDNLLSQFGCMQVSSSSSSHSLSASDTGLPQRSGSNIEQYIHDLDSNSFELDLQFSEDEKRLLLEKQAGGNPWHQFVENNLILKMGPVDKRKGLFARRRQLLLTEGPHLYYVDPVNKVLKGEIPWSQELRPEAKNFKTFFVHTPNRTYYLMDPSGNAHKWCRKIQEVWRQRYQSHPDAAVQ
Lck(h), sequence (P06239 whole entry): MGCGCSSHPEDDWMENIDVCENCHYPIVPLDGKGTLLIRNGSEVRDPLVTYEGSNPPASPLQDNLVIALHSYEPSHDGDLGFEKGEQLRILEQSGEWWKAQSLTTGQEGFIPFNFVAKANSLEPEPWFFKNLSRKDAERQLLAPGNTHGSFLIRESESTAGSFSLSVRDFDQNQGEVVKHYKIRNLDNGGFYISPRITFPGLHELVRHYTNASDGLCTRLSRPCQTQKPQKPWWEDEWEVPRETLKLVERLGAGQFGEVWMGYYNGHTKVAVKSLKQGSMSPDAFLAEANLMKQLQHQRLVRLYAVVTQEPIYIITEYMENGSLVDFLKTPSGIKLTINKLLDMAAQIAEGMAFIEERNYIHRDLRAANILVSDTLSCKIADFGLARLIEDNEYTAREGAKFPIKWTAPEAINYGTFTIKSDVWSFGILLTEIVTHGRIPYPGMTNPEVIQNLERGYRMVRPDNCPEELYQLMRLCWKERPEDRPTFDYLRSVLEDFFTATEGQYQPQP
Pim-1(h), sequence (P11309 whole entry): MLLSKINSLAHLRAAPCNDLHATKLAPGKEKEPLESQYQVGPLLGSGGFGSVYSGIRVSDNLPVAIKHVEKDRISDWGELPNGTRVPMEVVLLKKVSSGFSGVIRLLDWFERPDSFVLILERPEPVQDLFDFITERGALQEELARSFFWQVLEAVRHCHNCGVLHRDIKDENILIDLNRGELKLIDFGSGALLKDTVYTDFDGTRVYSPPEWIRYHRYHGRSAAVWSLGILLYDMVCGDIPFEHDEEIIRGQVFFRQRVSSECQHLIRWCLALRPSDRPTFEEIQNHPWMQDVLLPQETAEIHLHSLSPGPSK

Compound	IC50 [1] [nM]	IC50 [2] [nM]	IC50 [3] [nM]	IC50 [4] [nM]	IC50 [5] [nM]	IC50 [6] [nM]	IC50 [7] [nM]	IC50 [8] [nM]	IC50 [9] [nM]	IC50 [10] [nM]	IC50 [11] [nM]	IC50 [12] [nM]	IC50 [13] [nM]	IC50 [14] [nM]	IC50 [15] [nM]	IC50 [16] [nM]	IC50 [17] [nM]	IC50 [18] [nM]	IC50 [19] [nM]	IC50 [20] [nM]	also measured
CCN(CC)CCOc1ccc(Nc2cc3c(cn2)cc(-c2ccccc2)c(=O)n3CC)nc1 [Compound 1, 7-[5-(2-Diethylamino-ethoxy)-pyridin-2-ylamino]-1-ethyl-3-phenyl-1H-[1, 6]naphthyridin-2-one]	< 10	< 10	> 1000	> 1000	> 1000	> 1000	> 1000	< 10	> 1000	> 1000	100 to 500	> 1000	> 1000	> 1000	< 10	100 to 500	> 1000	> 1000	100 to 500	< 10	IC50 [21]: > 1000 nM; IC50 [22]: 500 to 1000 nM; IC50 [23]: < 10 nM; IC50 [24]: > 1000 nM; IC50 [25]: > 1000 nM; IC50 [26]: > 1000 nM; IC50 [27]: > 1000 nM; EC50 ([28]; DOHH-2, read-out: EC50 (Proliferation)): < 1000 nM; EC50 [28, 34]: < 1000 nM; IC50 [29]: > 1000 nM; IC50 [30]: > 1000 nM; IC50 [31]: < 100 nM; EC50 ([32]; 48 hrs): 1000 to 10000 nM; IC50 [33]: 100 to 1000 nM
CCn1c(=O)c(-c2ccccc2)cc2cnc(Nc3ncc(CCN(C)C)s3)cc21 [Compound 2, 7-[5-(2-Dimethylamino-ethyl)-thiazol-2-ylamino]-1-ethyl-3-phenyl-1H-[1,6]naphthyridin-2-one]	100 to 500	10 to 100	> 1000	> 1000	> 1000	> 1000	> 1000	< 10	> 1000	> 1000	100 to 500	> 1000	> 1000	> 1000	10 to 100	500 to 1000	> 1000	> 1000	> 1000	10 to 100	IC50 [21]: > 1000 nM; IC50 [22]: > 1000 nM; IC50 [23]: 10 to 100 nM; IC50 [24]: > 1000 nM; IC50 [25]: > 1000 nM; IC50 [26]: > 1000 nM; IC50 [27]: > 1000 nM; EC50 [28, 34]: 1000 to 10000 nM; IC50 [29]: > 1000 nM; IC50 [30]: > 1000 nM; IC50 [31]: > 5000 nM; EC50 ([32]; 48 h): 1000 to 10000 nM; IC50 ([33]; Lyn IC50): 1000 to 5000 nM
